Reference: patent US20060252800A1, “Anti-leishmania agent” (priority 2003, published 2006)

Legend:
[1] = test system: Leishmania (L. major); test: Leishmania protozoa proliferation inhibition assay; format: cell-based; settings: for OD level (number of viable Leishmania protozoa): 48 hours at 27° C., absorbance 450 nm minus 630 nm; for IC50: calculated from the graphs of FIGS. 1 to 4 (concentration vs number of viable leishmania protozoa), read-out: Concentration inhibiting 50% leishmania proliferation
Procedure: After dissolving each of the obtained compounds in dimethylsulfoxide (hereinafter referred to as DMSO), the resultant was diluted by 9 steps in Medium 199 medium (Invitrogen) to the indicated concentration, filtrated with a membrane filter, and each of the filtration was made as a sample solution. […] By keeping the solution at 27° C., incubation was performed under 5% CO2, for 48 hours. Then, TetraColor ONE (tradename: Seikagaku Corporation) reagent was added thereto and further incubated for 6 hours. Then, the absorbance at a wavelength of 450 nm was measured for the 96-well microtiter plate with a microplate reader, the wave length of 630 nm was made as reference wave length, and in order to exclude background effect, the absorbance at 630 nm was excluded from the one at 450 nm, and the OD level was calculated as a level to indicate the number of viable Leishmania protozoa. The assay was performed by three wells at a time for each concentration of each sample, and the mean level was made as OD level. […] Amphotericin B was used as positive control. […] Inhibiting effect against […] protozoa for each sample was similar or more compared with that of Amtephotericin B.

[2] = Table 2, sample concentration 0.0001 mg/ml
[3] = Table 2, sample concentration 0.0007 mg/ml
[4] = Table 2, sample concentration 0.002 mg/ml
[5] = Table 2, sample concentration 0.008 mg/ml
[6] = Table 2, sample concentration 0.025 mg/ml
[7] = Table 2, sample concentration 0.084 mg/ml
[8] = Table 2, sample concentration 0.279 mg/ml
[9] = Table 2, sample concentration 0.93 mg/ml
[10] = Table 2, sample concentration 3.1 mg/ml
[11] = Table 2, sample concentration 2E−04 mg/ml
[12] = Table 1, sample concentration 0.001 mg/ml
[13] = Table 1, sample concentration 0.016384 mg/ml
[14] = Table 1, sample concentration 0.04096 mg/ml
[15] = Table 1, sample concentration 0.1024 mg/ml
[16] = Table 1, sample concentration 0.256 mg/ml
[17] = Table 1, sample concentration 0.64 mg/ml
[18] = Table 1, sample concentration 1.6 mg/ml
[19] = Table 1, sample concentration 4 mg/ml
[20] = Table 1, sample concentration 10 mg/ml
[21] = Table 1, sample concentration 25 mg/ml, mean of three wells

| melting point | SMILES | OD level (number of viable Leishmania protozoa) [1, 2] | OD level (number of viable Leishmania protozoa) [1, 3] | OD level (number of viable Leishmania protozoa) [1, 4] | OD level (number of viable Leishmania protozoa) [1, 5] | OD level (number of viable Leishmania protozoa) [1, 6] | OD level (number of viable Leishmania protozoa) [1, 7] | OD level (number of viable Leishmania protozoa) [1, 8] | OD level (number of viable Leishmania protozoa) [1, 9] | OD level (number of viable Leishmania protozoa) [1, 10] | OD level (number of viable Leishmania protozoa) [1, 11] | IC50 [1] | OD level (number of viable Leishmania protozoa) [1, 12] | OD level (number of viable Leishmania protozoa) [1, 13] | OD level (number of viable Leishmania protozoa) [1, 14] | OD level (number of viable Leishmania protozoa) [1, 15] | OD level (number of viable Leishmania protozoa) [1, 16] | OD level (number of viable Leishmania protozoa) [1, 17] | OD level (number of viable Leishmania protozoa) [1, 18] | OD level (number of viable Leishmania protozoa) [1, 19] | other results |
| --- | --- | --- | --- | --- | --- | --- | --- | --- | --- | --- | --- | --- | --- | --- | --- | --- | --- | --- | --- | --- | --- |
| 299 to 300 °C | CCCC[n+]1ccc(/C=c2\s/c(=C3/Sc4ccccc4N3C)c(=O)n2CC)cc1.[Br-] [I (b), 1-butyl-4-[3-ethyl-{5-(3-methyl-2(3H)-benzothiazolylidene)-4-oxo-2-thiazolidinylidene}methyl]pyridinium=bromide] | 0.363 | 0.345 | 0.335 | 0.335 | 0.435 | 0.465 | 0.106 | 0.032 | 0.032 | 0.343 | 3700 nM |  |  |  |  |  |  |  |  |  |
| 237 to 242 °C | CCCC[n+]1ccccc1/C=c1\s/c(=C2/Sc3ccccc3N2C)c(=O)n1CC.[I-] [I (c), 1-butyl-2-[3-ethyl-{5-(3-methyl-2(3H)-benzothiazolylidene)-4-oxo-2-thiazolidinylidene}methyl]pyridinium=iodide] | 0.365 | 0.360 | 0.394 | 0.407 | 0.317 | 0.117 | 0.042 | 0.029 | 0.031 | 0.350 | 1000 nM |  |  |  |  |  |  |  |  |  |
|  | CCn1c(=Cc2sc3ccccc3[n+]2C)sc(=C2Sc3ccc4ccccc4c3N2C)c1=O.Cc1ccc(S(=O)(=O)[O-])cc1 [IV (m), 2-[{5-(3-methyl-2(3H)-benzobenzo[e]thiazolilidene)-4-oxo-3-ethyl-2-thiazolidinylidene}methyl]-1-methylbenzothiazolium=p-toluenesulfonate] |  |  |  |  |  |  |  |  |  |  | 2700 nM |  |  |  |  |  |  |  |  | OD level (number of viable Leishmania protozoa) ([1]; Table 3, sample concentration 0.001 mg/ml): 0.340; OD level (number of viable Leishmania protozoa) ([1]; Table 3, sample concentration 0.002165 mg/ml): 0.344; OD level (number of viable Leishmania protozoa) ([1]; Table 3, sample concentration 0.0072171 mg/ml): 0.342; OD level (number of viable Leishmania protozoa) ([1]; Table 3, sample concentration 0.02406 mg/ml): 0.354; OD level (number of viable Leishmania protozoa) ([1]; Table 3, sample concentration 0.08019 mg/ml): 0.379; OD level (number of viable Leishmania protozoa) ([1]; Table 3, sample concentration 0.2673 mg/ml): 0.422; OD level (number of viable Leishmania protozoa) ([1]; Table 3, sample concentration 0.891 mg/ml): 0.385; OD level (number of viable Leishmania protozoa) ([1]; Table 3, sample concentration 2.97 mg/ml): 0.149; OD level (number of viable Leishmania protozoa) ([1]; Table 3, sample concentration 9.9 mg/ml): 0.033; OD level (number of viable Leishmania protozoa) ([1]; Table 3, sample concentration 33 mg/ml): 0.027 |
|  | CN1/C(=C\c2cccc[n+]2C)Sc2ccccc21 [V (a), 2-[(3-methyl-2(3H)-benzothiazolylidene)methyl]-1-methylpyridinium=p-toluenesulfonate] |  |  |  |  |  |  |  |  |  |  | 490 nM | 0.464 | 0.615 | 1.237 | 0.596 | 0.139 | 0.046 | 0.032 | 0.029 | OD level (number of viable Leishmania protozoa) [1, 20]: 0.031; OD level (number of viable Leishmania protozoa) [1, 21]: 0.032 |
|  | CCN1C(=O)CS/C1=C\c1sc2ccccc2[n+]1CC [V (b), 2-[(4-oxo-3-ethyl-2-thiazolidinylidene)methyl]-3-ethylbenzothiazolium=p-toluenesulfonate] |  |  |  |  |  |  |  |  |  |  | 1200 nM | 0.441 | 0.458 | 0.520 | 0.533 | 0.363 | 0.145 | 0.047 | 0.040 | OD level (number of viable Leishmania protozoa) [1, 20]: 0.042; OD level (number of viable Leishmania protozoa) [1, 21]: 0.056 |
